Reference: patent US20070021415A1, “Pharmaceutical composition for the prevention or treatment of cerebral oedemas” (priority 2005, published 2007)
Where two headings read alike, the source gives them in different places.

Assays:
[1] = tested on: cerebral oedema induced by triethyl tin (TET) in the rat; conditions: in vivo
[2] = rat, in vivo; for weight gain (in words): po, 50 mg/kg/day
[3] = tested on: cerebral oedema induced by triethyl tin (TET) chloride in the rat; conditions: administered during the intoxication with tin, measured after 5 days (Linee et al., 1984); cited from earlier work

Row | Compound | weight of the dried brain ([1]; po) | Variation in percentage ([1]; po, 50 mg/kg/day) | weight gain (in words) [2] | activity in the preventive protocol [3] | further results
1 | CCNC1=Nc2ccc(Cl)cc2C(C)(c2ccccc2)O1.Cl (stereo not drawn) [etifoxine, 6-chloro-2-ethylamino-4-methyl-4-phenyl-4H-[3,1]benzoxazine hydrochloride] | do not modify this parameter significantly | −0.30% | does not disrupt weight gain | – | Variation in percentage ([1]; po, 100 mg/kg/day): −0.07%; Body weight in grams (mean ± s.e.m.) [2]: 251 ± 4 grams
2 | CC[C@]12CCCN3CCc4c(n(c5ccccc45)[C@@](O)(C(=O)OC)C1)[C@@H]32 [vincamine] | – | – | – | active | –
3 | (−)eburnamonine | – | – | – | active | –
4 | CC1(c2ccccc2)OC(N)=Nc2ccc(Cl)cc21 (stereo not drawn) [desethyl-etifoxine, 2-amino-6-chloro-4-methyl-4-phenyl-4H-[3,1]benzoxazine] | do not modify this parameter significantly | −0.09% | does not disrupt the weight gain | – | Variation in percentage [1]: +0.39%
5 | dihydroergotoxin | – | – | – | active | –
